Test results: paper PMC6270976, “Pharmacokinetic Study in Mice of Galphimine-A, an Anxiolytic Compound from Galphimia glauca” (Molecules, 2014)
Where two headings read alike, the source gives them in different places.

Assay: Plasma pharmacokinetics of G–A after a single oral dose in ICR mice (HPLC, PKSolver)
Assay type: in vivo
Set-up: t1/2ka (absorption half time): unit not given here
Settings: for AUC(0-inf) / Cmax / Tmax / AUC(0-t) / CL/F / MRT / Vd/F / k el: ICR, po, 200 mg/kg; for AUC(0-t): read-out: AUC0-1440 min (converted); for CL/F: read-out: CL/F (apparent clearance); for MRT: read-out: MRT (mean residence time) (converted); for Vd/F: read-out: V/F (apparent volume of distribution)
Method: Eighty-eight mice were randomly divided into 11 groups with eight individuals each. All animals were orally administered with 200 mg/kg of G–A dissolved in 5% β-cyclodextrin solution. Under ether-induced anesthesia, blood samples were obtained from the retroorbital sinus with heparinized cannula at different times (0, 5, 10, 15, 30, 60, 120, 240, 480, 720, and 1,440 min) after G–A administration. The volume of the blood samples was of 700 to 1000 microliters, which were collected in heparinized centrifuge microtubes, after the blood was centrifuged for 5 min at 1,720 × g.
Plasma samples were frozen at −70 °C, and lyophilized after. The obtained dry product was used to extract and measure the amount of G–A. After obtaining blood samples, all animals were perfused with isotonic saline solution (ISS) via cardiac puncture; the femoral vein was used to eliminate the perfusion liquid, until it appeared clear. Subsequently, the brain was removed. The brains were weighed fresh and frozen at −70 °C and then lyophilized. Once dry, the brains were weighed again to determine the volume of water contained in each brain. Dry tissue was ground in a mortar, and G–A was later extracted.
Dry pulverized samples (plasma and brain) were extracted with methanol (HPLC grade, Merck). The extracts were filtered with a 0.45 μm, 13 mm Teflon membrane (Millex®-LCR), and 20 μL of filtrate were injected into the HPLC equipment. Measurements were performed in a Waters 2695 HPLC, with diode array detector (Waters 2996) and the Empower Pro 1.0 software. A Chromolith Performance® RP-18e 100 × 4.6 mm (Merck KGaA Darmstadt, Germany) was used. The mobile phase consisted of a mixture of acetonitrile:water (55:45, 1 mL/min). G–A concentration was obtained by comparison with a pre-built calibration curve at λ = 220 nm.
To evaluate the suitability of the assay for pharmacokinetic studies, 200 mg/kg of G–A was orally administered to mice. Eight animals were used in each group different times (0, 5, 10, 15, 30, 60, 120, 240, 480, 720, and 1440 min). Pharmacokinetic calculations were performed using the observed data. All data were subsequently processed using PKSolver add-in program for Microsoft Excel written in Visual Basic for Applications. […]
The pharmacokinetic model selection either one or two-comparment, were used both the Akaike information criterion (AIC) and Schwarz criterion (SC). Using the criteria, one may select the model with which to reach a lower value of AIC or SC, which means that the chosen model is more parsimonious (less parameters required) and best fits the data (low error prediction).

[1] = mouse, plasma, one-compartment model, oral 200 mg/kg
[2] = mouse, plasma, plasma, one-compartment model, oral 200 mg/kg
[3] = mouse, plasma, plasma, two-compartment model, oral 200 mg/kg
[4] = mouse, plasma, two-compartment model, oral 200 mg/kg
[5] = plasma, one-compartment model, oral 200 mg/kg
[6] = plasma, two-compartment model, oral 200 mg/kg

Question: With `COC(=O)[C@@]12CC[C@]3(C)C([C@H](O)[C@H](O)[C@@]4([C@@H](C)O)COC(=O)C=C[C@H]43)[C@@]1(C)CC[C@@]1(C)CC=C(C)C[C@]12O` (stereo partly shown) [G–A, galphimine-A] as the compound, how does the “G–A Concentration Plasma” value (5 min after single oral 200 mg/kg, mean ± S.E.M., n = 8, 200 mg/kg) read?
Answer: 2.47 ± 0.43 µg/mL

Question: And the AUC(0-inf) [1]?
Answer: 36200 ng·h/mL

Question: And the Cmax [1]?
Answer: 3330 ng/mL

Question: And the Tmax [1]?
Answer: 0.436 h

Question: What about the AUC(0-t) [2] of the same compound?
Answer: 32500 ng·h/mL

Question: And the CL/F [2]?
Answer: 92 mL/min/kg

Question: What about the MRT [2] of the same compound?
Answer: 10.5 h

Question: And the Vd/F [2]?
Answer: 57.6 L/kg

Question: And the k el (mouse, plasma, plasma, one-compartment model, oral 200 mg/kg, read-out: k10 (apparent first-order elimination rate constant) (converted))?
Answer: 2.67e-05 s⁻¹

Question: And the k el (mouse, plasma, plasma, one-compartment model, oral 200 mg/kg, read-out: k10 (elimination rate constant) (converted))?
Answer: 2.67e-05 s⁻¹

Question: And the AUC(0-t) [3]?
Answer: 30400 ng·h/mL

Question: And the CL/F [3]?
Answer: 98 mL/min/kg

Question: And the MRT [3]?
Answer: 10.3 h

Question: And the Vd/F [3]?
Answer: 55.5 L/kg

Question: What about the k el (mouse, plasma, plasma, two-compartment model, oral 200 mg/kg, read-out: k10 (apparent first-order elimination rate constant) (converted)) of the same compound?
Answer: 2.83e-05 s⁻¹

Question: And the k el (mouse, plasma, plasma, two-compartment model, oral 200 mg/kg, read-out: k10 (elimination rate constant) (converted))?
Answer: 2.83e-05 s⁻¹

Question: And the AUC(0-inf) [4]?
Answer: 33800 ng·h/mL

Question: And the Cmax [4]?
Answer: 3420 ng/mL

Question: And the Tmax [4]?
Answer: 0.456 h

Question: And the concentration at 5 min (mouse, plasma, 5 min after single oral 200 mg/kg, mean ± S.E.M., n = 8)?
Answer: 2470 ng/mL

Question: And the concentration at 10 min (mouse, plasma, 10 min after single oral 200 mg/kg, mean ± S.E.M., n = 8)?
Answer: 2570 ± 520 ng/mL

Question: What about the concentration at 15 min (mouse, plasma, 15 min after single oral 200 mg/kg, mean ± S.E.M., n = 8) of the same compound?
Answer: 2790 ± 790 ng/mL

Question: And the concentration at 30 min (mouse, plasma, 30 min after single oral 200 mg/kg, mean ± S.E.M., n = 8)?
Answer: 3700 ± 700 ng/mL

Question: And the concentration at 60 min (mouse, plasma, 60 min after single oral 200 mg/kg, mean ± S.E.M., n = 8)?
Answer: 3440 ± 350 ng/mL

Question: What about the concentration at 120 min (mouse, plasma, 120 min after single oral 200 mg/kg, mean ± S.E.M., n = 8) of the same compound?
Answer: 2950 ± 430 ng/mL

Question: What about the concentration at 240 min (mouse, plasma, 240 min after single oral 200 mg/kg, mean ± S.E.M., n = 8) of the same compound?
Answer: 2330 ± 420 ng/mL

Question: And the concentration at 480 min (mouse, plasma, 480 min after single oral 200 mg/kg, mean ± S.E.M., n = 8)?
Answer: 1440 ± 370 ng/mL

Question: And the concentration at 720 min (mouse, plasma, 720 min after single oral 200 mg/kg, mean ± S.E.M., n = 8)?
Answer: 960 ± 210 ng/mL

Question: What about the concentration at 1440 min (mouse, plasma, 1440 min after single oral 200 mg/kg, mean ± S.E.M., n = 8) of the same compound?
Answer: 310 ± 20 ng/mL

Question: What about the “Plasma area under the G–A concentration time curve” value (one-compartment model, oral 200 mg/kg) of the same compound?
Answer: 2,170 μg·min·mL^−1

Question: What about the “Time to detection in plasma after oral administration” value (oral 200 mg/kg) of the same compound?
Answer: ≤ 5 min

Question: And the “A (G–A plasma concentration in central compartment)” value [5]?
Answer: 3.50 µg/mL

Question: What about the “ka (apparent first-order absorption rate constant)” value [5] of the same compound?
Answer: 0.182 min⁻¹

Question: And the “t1/2ka (absorption half time)” value [5]?
Answer: 3.79

Question: And the “A (G–A plasma concentration in central compartment)” value [6]?
Answer: 1.83 µg/mL

Question: And the “B (G–A plasma concentration in peripheral compartment)” value [6]?
Answer: 1.82 µg/mL

Question: And the “k12 (transfer rate constant central to peripheral compartment)” value [6]?
Answer: 0.00017 min⁻¹

Question: What about the “k21 (transfer rate constant peripheral to central compartment)” value [6] of the same compound?
Answer: 0.00195 min⁻¹

Question: And the “ka (apparent first-order absorption rate constant)” value [6]?
Answer: 0.164 min⁻¹

Question: What about the “t1/2ka (absorption half time)” value [6] of the same compound?
Answer: 4.22

Question: And the α [6]?
Answer: 0.0025 min⁻¹

Question: What about the β [6] of the same compound?
Answer: 0.0014 min⁻¹

Question: And the “Plasma area under the G–A concentration time curve” value (two-compartment model, oral 200 mg/kg)?
Answer: 2,030 μg·min·mL^−1
